These results are taken from US10718028B2, “Fluorescent probes for abasic site detection” (CASE WESTERN RESERVE UIVERSITY, priority 2015, dated 2020).

Test [1] relates to AP sites in calf thymus DNA. Put plainly: MX or ARP and Cy7MX genomic DNA competition assay. It counts as binding. The procedure:
Calf thymus DNA was purchased from Sigma and was reconstituted overnight at 4° C. in either H2O or 500 mM MX (to eliminate basal AP sites) with gentle shaking (1.5 mL water or solution per 5 mg DNA). For samples reconstituted in MX solution, an ethanol precipitation was performed twice before heat and acid treatment (vide infra) then reconstituted in water. The DNA-water solution was aliquoted to 1.5 mL Eppendorf tubes (360 μL) and 10× Citrate buffer (1M NaCl, 100 μM monosodium phosphate, 100 μM monosodium citrate, pH 5.0) was added to a final concentration of 1×. For t=0 min samples, ice-cold 100% EtOH (1.0 mL) was added immediately and the Eppendorf tubes stored at −20° C. Other samples were placed in a 70° C. heating block for 15-90 minutes in 15-minute increments. Samples were removed from heat, precipitated in ice-cold 100% EtOH (1.0 mL), and then chilled at −20° C. for at least 20 minutes. Samples were centrifuged at 12,000×G for 10 min at 4° C. The supernatant was discarded. The process was repeated once beginning with the addition of EtOH (1.0 mL). The DNA pellet was dissolved in 700 μL H2O or TE buffer. Aliquots of 80 μL were put in 1.5 mL Eppendorf tubes. Any samples not used immediately were stored at −80° C.
Solutions of MX and Cy7MX were prepared in H2O varying [MX] from 0-1.9 M and maintaining at 25 μM. […] The ratios of MX:Cy7MX used in this study were: 0, 0.01, 0.1, 0.5, 1, 5, 10, 50, 100, 250, 500, 1000, 2500, 5000, 10000, 25000, 50000, and 75000. […] The following samples were prepared in triplicate: 20 μL of MX/Cy7MX solution was added to 80 μL aliquots of heat/acid treated DNA (t=45 min). Samples were incubated for 1 h at 37° C. in the dark. Ice-cold EtOH (1.0 mL) was added and the DNA was purified by EtOH precipitation three times as described in the heat/acid treatment of genomic DNA section. DNA was dissolved in 150 μL H2O. Aliquots (125 μL) of the samples were added to a black, clear-bottom 96 well plate (Corning) and analyzed with 750 nm excitation and 800 nm emission. Fluorescence was adjusted to DNA concentration.
As before (section 2.3.2) except solutions of ARP and Cy7MX were prepared in H2O varying [ARP] from 0-75 mM and maintaining at 1 μM. The ratios of ARP: Cy7MX used in this study were: 0, 0.1, 1, 10, 100, 500, 1000, 5000, 10000, 25000, 50000, and 75000.

For test [2], the system named is DLD1 cells. Description: ARP analysis of FUDR treated DLD1 DNA. Format: cell-based. To be noted: ARP-based DNA Damage Quantification Kit, same DNA samples. The procedure: DNA aliquots (10 μL) from above were diluted in TE buffer (10 μL). DNA concentrations were measured on a Nanodrop 1000 and adjusted to 100 μg/mL in TE buffer. Samples were prepared for ARP analysis using the ARP DNA Damage Quantification Kit (Dojindo #DK02-12). Samples were prepared and analyzed according to the manufacturer's instructions.

Test [3] has as its system DLD1 cells. Put plainly: AP site evaluation in FUDR treated DLD1 cells with Cy7MX. Format: cell-based. The following applies: 72 h continuous FUDR exposure, UDG KD cells, DNA treated in vitro with UDG. As to the method:
DLD1 cells (ATCC #CCL-221) were obtained from the laboratory of Sanford Markowitz at Case Western Reserve University. UDG directed shRNA clones and scrambled targeted control shRNA clones were purchased from Sigma-Aldrich. According to manufacturer's instructions from Lipofectamine 2000 (Invitrogen), HEK293 cells were transfected to produce lentiviral particles that were used to infect DLD1 cells. Forty-eight hours after transfection, DLD1 cells were diluted for passage and selected with puromycin. The UDG knockdown levels were verified by RT-PCR and Western blot analysis.
To allow for cell proliferation, the following approximate numbers of cells were plated for each time point given in parenthesis: 4 million (24 h), 1 million (48 h), and 0.3 million (72 h). Two mL of medium were removed from each plate and replaced with 2 mL of FUDR solution at a final concentration of 0, 10, 200, or 1000 nM in 10 mL. […]
Pure DNA pellets were dissolved in 200 μL 1×UDG buffer. […] DNA concentrations were measured and adjusted to a maximum of 300 μg/mL. Aliquots (125 μL) of the samples were added to a black, clear-bottom 96 well plate (Corning) and analyzed with 760 nm excitation and emission scan of 790-847 nm with a 3 nm step size. Integrated fluorescence intensities were adjusted to DNA concentration and normalized to the FUDR untreated KD+UDG sample.

Take `NOCC(=O)NNC(=O)CCCC[C@@H]1SC[C@@H]2NC(=O)N[C@@H]21` [ARP]: in test [1] (1 h at 37° C., constant Cy7MX), the “ED50 of Cy7MX, excess of competitor” value is recorded as 2600 × excess. For the same compound, the “ED50, molar ratio of probe to Cy7MX” value in test [1] (calf thymus DNA heat/acid 45 min, FIG. 13) was found to be 2600 fold excess. In addition, in the test on DLD1 cells [2], the “background and sensitivity of AP site detection” value was “larger background and lower sensitivity than compound Cy7MX”.
Turning to `O=c1[nH]c(=O)n([C@H]2C[C@H](O)[C@@H](CO)O2)cc1F` [FUDR, 5-fluoro-20-deoxyuridine], in the test with DLD1 cells [3], the “increase in Cy7MX fluorescence intensity (AP sites)” value is reported as around 9 fold.
